ChEMBL document CHEMBL5104182, “Design and Synthesis of a 2-Amino-pyridine Derivative as a Potent CDK8 Inhibitor for Anti-colorectal Cancer Therapy” (J Med Chem, 2022)
Active and inactive are the calls of the source. The calls are words filed in the database; no cut-off is given here.

How the values were obtained:
CT26 [1] = test: Antiproliferative activity against […] cells assessed as cell viability incubated for 48 hrs by MTT assay; assay type: functional; conditions: Mus musculus
Homo sapiens = species on record: Homo sapiens; test: Selectivity ratio of IC50 for human CDK7 to IC50 for human CDK8
CT26 [2] = test: Anticancer activity against mouse CT26 cells transplanted in […] mouse assessed as reduction in tumor growth at 10 to 40 mg/kg, po daily measured after 21 days; assay type: functional, organism-based; conditions: dose 10-40 mg/kg, time 21.0 day
[3] = Toxicity in ICR mouse assessed as liver damage at 1000 mg/kg, using gastric tube by H&E staining assay; assay type: organism-based; conditions: in vivo, po, route ig
SW480 = test: Antiproliferative activity against human SW480 cells assessed as cell viability incubated for 48 hrs by MTT assay; assay type: functional
[4] = molecular target: T1, Cyclin-dependent kinase 8 (Homo sapiens, UniProt P49336); test: Binding affinity to CDK8-Flag (unknown origin) transfected in HEK293T cells; assay type: cell-based
T1 sequence (P49336 whole entry): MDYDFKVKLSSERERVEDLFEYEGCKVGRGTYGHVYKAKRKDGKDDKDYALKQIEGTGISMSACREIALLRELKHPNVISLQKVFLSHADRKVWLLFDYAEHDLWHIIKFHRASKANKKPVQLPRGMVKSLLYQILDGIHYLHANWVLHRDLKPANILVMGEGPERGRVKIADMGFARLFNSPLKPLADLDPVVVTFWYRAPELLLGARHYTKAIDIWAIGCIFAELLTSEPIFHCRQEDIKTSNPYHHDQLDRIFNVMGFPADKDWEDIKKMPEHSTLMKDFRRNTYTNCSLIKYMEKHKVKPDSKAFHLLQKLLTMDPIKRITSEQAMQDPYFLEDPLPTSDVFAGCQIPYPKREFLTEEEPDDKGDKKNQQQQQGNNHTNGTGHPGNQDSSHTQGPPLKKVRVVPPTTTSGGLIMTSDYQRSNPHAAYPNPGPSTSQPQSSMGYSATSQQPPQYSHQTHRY

[5] = Toxicity in ICR mouse assessed as heart damage at 1000 mg/kg, using gastric tube by H&E staining assay; assay type: organism-based; conditions: in vivo, po, route ig
HT-29 = test: Antiproliferative activity against human HT-29 cells assessed as cell viability incubated for 48 hrs by MTT assay; assay type: functional
HCT-116 = test: Induction of cell cycle arrest in human HCT-116 cells assessed as increase in cells at G2/M phase measured after 48 hrs by flow cytometry; assay type: functional, cell-based
[6] = molecular target: Cyclin-dependent kinase 6 (Homo sapiens, UniProt Q00534); test: Inhibition of CDK6 (unknown origin) assessed as inhibition rate
Sequence of Cyclin-dependent kinase 6 (Q00534 whole entry): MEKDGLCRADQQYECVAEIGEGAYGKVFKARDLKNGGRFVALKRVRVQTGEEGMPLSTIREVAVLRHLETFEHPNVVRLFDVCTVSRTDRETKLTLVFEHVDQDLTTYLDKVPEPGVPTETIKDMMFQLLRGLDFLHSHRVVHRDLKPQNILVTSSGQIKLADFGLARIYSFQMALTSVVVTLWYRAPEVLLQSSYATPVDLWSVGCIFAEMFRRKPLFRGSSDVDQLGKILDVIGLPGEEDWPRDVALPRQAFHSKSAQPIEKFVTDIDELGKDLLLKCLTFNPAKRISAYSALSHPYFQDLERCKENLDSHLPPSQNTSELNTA

[7] = Tmax in Sprague-Dawley rat at 10 mg/kg, po upto 24 hrs by HPLC analysis; assay type: ADME, organism-based; conditions: in vivo
[8] = molecular target: T1, Cyclin-dependent kinase 8; test: Inhibition of CDK8 in human HCT-116 cells assessed as inhibition of STAT1 phosphorylation at Ser727 by Western blot analysis; assay type: cell-based
CT26 [9] = test: In vivo inhibition of CDK8 in mouse CT26 cells transplanted in […] mouse assessed as downregulation of c-Myc in tumor at 10 to 40 mg/kg, po daily measured after 21 days; assay type: functional, organism-based; conditions: dose 10-40 mg/kg, time 21.0 day
[10] = molecular target: T1, Cyclin-dependent kinase 8; conditions: dose 200.0 nM

In the case of `Nc1ccc(Oc2ccc(NC(=O)Nc3cccc(C(F)(F)F)c3)cc2)cn1`, the GI50 (CT26 [1]) is reported as 5.5 µM, the Ratio IC50 (Homo sapiens) is reported as 2 and the Activity (CT26 [2]) is reported as “Active”. For the same compound, the Activity [3] was “Non-Toxic”, the GI50 (SW480) was 2.4 µM and the Activity [4] was “Active”. For the same compound, the Activity [5] was “Non-Toxic”, the GI50 (HT-29) was 0.7 µM and the Activity (HCT-116) was “Active”. The IC50 [6] was 0.251 µM, the Tmax [7] was 48 min and the inhibition [8] was “Active”. For the same compound, the Activity (CT26 [9]) was “Active” and the inhibition [10] was 73.6%.
